Assays:
human recombinant HDAC1 = target: T1, human recombinant HDAC1 (Homo sapiens, UniProt Q13547); assay: HDAC activity assay (fluorogenic HDAC assay kit), HDAC1; format: biochemical; conditions: human recombinant HDAC1, 37 °C, 30 min
T1 construct: purchased BPS Bioscience, CA
Experimental: (§2) HDAC activity was measured using fluorogenic HDACs assay kit (BPS Bioscience, CA) according to the manufacturer's protocol. […] Fluorescence values were measured at an excitation of 350 nm and an emission of 440 nm using SpectraMax M2 microplate reader. IC50 values were calculated using Origin software. IC50 values were determined using nonlinear regression analysis.

human recombinant HDAC2 = target: T2, human recombinant HDAC2 (Homo sapiens, UniProt Q92769); assay: HDAC activity assay (fluorogenic HDAC assay kit), HDAC2; format: biochemical; conditions: human recombinant HDAC2, 37 °C, 30 min
T2 construct: purchased BPS Bioscience, CA
T2 sequence (Q92769 whole entry): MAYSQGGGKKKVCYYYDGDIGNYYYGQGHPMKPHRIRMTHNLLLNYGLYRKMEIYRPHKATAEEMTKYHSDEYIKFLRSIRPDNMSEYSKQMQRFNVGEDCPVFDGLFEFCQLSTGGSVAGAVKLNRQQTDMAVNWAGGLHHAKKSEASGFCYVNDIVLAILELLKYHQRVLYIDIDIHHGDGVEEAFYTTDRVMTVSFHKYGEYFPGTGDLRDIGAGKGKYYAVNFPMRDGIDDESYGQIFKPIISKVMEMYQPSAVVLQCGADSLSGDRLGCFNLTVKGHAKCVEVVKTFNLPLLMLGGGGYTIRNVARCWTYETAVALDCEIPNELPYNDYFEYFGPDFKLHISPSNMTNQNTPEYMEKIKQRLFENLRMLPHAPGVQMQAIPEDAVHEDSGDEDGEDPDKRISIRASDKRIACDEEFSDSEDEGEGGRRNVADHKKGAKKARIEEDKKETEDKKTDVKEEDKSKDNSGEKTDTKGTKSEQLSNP
Experimental: as §2

[1] = system: breast cancer cells MCF-7; assay: Antiproliferative activity, CCK-8 assay, MCF-7; format: cell-based; conditions: Homo sapiens, MCF7; CCK-8, 72 hours; mean ± SD
Experimental: (§3) Antitumor activities in vitro of synthetic compounds were measured using CCK-8 Assay Kit (BPS Bioscience, CA) according to the manufacturer's protocol. […] Control cells were treated with serum free medium. Then CCK-8 solution was added to each well to determine cell viability. The IC50 values were calculated according to the dose-dependent curves (Origin software). IC50 values were determined using nonlinear regression analysis.

[2] = system: prostate cancer cells PC-3; assay: Antiproliferative activity, CCK-8 assay, PC-3; format: cell-based; conditions: Homo sapiens; CCK-8, 72 hours; mean ± SD
Experimental: as §3

tubulin = assay: Tubulin polymerization assay; format: biochemical; conditions: in words
Sequence of tubulin (P02550 whole entry): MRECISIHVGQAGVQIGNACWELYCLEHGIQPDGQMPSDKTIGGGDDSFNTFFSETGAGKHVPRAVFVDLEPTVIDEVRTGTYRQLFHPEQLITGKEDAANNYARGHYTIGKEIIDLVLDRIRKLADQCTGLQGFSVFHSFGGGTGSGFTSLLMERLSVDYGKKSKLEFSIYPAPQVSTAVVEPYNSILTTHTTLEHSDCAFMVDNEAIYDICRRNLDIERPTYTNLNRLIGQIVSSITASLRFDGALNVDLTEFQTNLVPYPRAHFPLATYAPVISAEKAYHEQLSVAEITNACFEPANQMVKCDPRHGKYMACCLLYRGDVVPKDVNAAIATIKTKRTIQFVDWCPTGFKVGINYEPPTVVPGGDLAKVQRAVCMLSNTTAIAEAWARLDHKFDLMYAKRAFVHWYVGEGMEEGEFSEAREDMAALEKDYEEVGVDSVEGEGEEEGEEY
Sequence of tubulin (P02554 whole entry, further chain): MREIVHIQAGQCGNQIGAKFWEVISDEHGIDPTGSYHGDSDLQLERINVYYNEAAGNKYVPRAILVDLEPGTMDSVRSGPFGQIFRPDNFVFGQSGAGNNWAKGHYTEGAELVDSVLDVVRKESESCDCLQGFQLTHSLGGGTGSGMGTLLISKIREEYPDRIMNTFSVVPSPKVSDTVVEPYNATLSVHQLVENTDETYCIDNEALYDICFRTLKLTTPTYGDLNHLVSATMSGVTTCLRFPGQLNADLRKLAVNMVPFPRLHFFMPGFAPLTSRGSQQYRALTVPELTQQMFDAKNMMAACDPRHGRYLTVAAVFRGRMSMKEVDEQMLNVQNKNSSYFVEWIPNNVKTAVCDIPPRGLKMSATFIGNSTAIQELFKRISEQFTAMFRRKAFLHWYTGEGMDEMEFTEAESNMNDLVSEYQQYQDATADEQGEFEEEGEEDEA
Experimental: Tubulin polymerization assay was performed using a fluorescence-based tubulin polymerization assay Kit (BK011, Cytoskeleton, Inc.) according to the manufacturer's protocol. […] After addition of polymerization buffer and 0.4 mM GTP, the reaction mixtures were transferred to 0 °C cuvettes in a recording spectrophotometer. […] Data from each well was normalized relative to initial readings,[43] and plots of ΔODmax (final−initial values) against compound concentration, expressed relative to vehicle control (DMSO only), were used to calculate IC50 values.[44] IC50 values were determined using nonlinear regression analysis.

liver cancer cells HepG2 = assay: Antiproliferative activity, CCK-8 assay, HepG2; format: cell-based; conditions: Homo sapiens, CCK-8, 72 hours, mean ± SD
Experimental: as §3

[3] = system: human cervical carcinoma cells HeLa; assay: Antiproliferative activity, CCK-8 assay, HeLa; format: cell-based; conditions: CCK-8, 72 hours, mean ± SD, read-out: IC50 HeLa
Experimental: (§1) Antitumor activities in vitro of synthetic compounds were measured using CCK-8 Assay Kit (BPS Bioscience, CA) according to the manufacturer's protocol. Cells were plated into 96-well plates with appropriate test compounds for 72 hours. Control cells were treated with serum free medium. Then CCK-8 solution was added to each well to determine cell viability. The IC50 values were calculated according to the dose-dependent curves (Origin software). IC50 values were determined using nonlinear regression analysis.

human recombinant HDAC6 = target: T3, human recombinant HDAC6 (Homo sapiens, UniProt Q9UBN7); assay: HDAC activity assay (fluorogenic HDAC assay kit), HDAC6; format: biochemical; conditions: for IC50: human recombinant HDAC6, 37 °C, 30 min; for Selectivity index HDAC6/1: ratio of IC50 HDAC1 to IC50 HDAC6; for Selectivity index HDAC6/2: ratio of IC50 HDAC2 to IC50 HDAC6;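 for all read-outs here: underlying HDAC activity read as fluorescence, excitation 350 nm and emission 440 nm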
T3 construct: purchased BPS Bioscience, CA
T3 sequence (Q9UBN7 1-1215): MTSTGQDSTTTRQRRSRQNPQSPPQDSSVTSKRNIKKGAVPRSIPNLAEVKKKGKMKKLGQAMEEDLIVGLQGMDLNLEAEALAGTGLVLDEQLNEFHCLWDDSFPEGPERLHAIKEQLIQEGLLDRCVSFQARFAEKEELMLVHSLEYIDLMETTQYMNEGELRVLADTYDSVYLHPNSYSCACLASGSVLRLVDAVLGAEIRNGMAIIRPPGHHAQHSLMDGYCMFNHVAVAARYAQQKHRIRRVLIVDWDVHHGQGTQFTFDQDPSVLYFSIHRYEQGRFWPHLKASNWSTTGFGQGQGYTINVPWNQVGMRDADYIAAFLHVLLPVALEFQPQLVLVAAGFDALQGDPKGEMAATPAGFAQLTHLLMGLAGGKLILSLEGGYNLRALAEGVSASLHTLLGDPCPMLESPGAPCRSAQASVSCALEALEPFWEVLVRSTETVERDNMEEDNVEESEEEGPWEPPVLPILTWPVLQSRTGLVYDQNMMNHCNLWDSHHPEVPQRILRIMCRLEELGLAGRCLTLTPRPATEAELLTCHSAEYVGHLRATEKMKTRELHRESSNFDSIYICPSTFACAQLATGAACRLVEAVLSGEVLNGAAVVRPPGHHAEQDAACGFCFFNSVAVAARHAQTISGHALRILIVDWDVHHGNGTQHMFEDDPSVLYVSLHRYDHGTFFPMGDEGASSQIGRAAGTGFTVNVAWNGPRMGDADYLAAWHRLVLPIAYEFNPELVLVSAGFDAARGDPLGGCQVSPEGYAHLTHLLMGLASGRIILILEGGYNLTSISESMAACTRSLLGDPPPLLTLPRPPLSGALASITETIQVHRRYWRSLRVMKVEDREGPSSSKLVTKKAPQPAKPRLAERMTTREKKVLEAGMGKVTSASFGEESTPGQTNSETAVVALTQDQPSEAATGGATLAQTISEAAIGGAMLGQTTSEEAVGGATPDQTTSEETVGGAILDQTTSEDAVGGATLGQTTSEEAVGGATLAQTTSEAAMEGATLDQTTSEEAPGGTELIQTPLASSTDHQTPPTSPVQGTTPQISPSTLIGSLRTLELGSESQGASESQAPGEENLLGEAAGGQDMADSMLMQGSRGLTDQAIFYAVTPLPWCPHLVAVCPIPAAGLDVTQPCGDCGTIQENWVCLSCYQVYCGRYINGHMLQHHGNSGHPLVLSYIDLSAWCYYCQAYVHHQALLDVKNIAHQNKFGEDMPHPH
Experimental: as §2

healthy MCF-10A cells = assay: Toxicity to healthy cells, CCK-8 assay, MCF-10A; format: cell-based; conditions: Homo sapiens, MCF-10A; healthy cells, CCK-8, 72 hours; >100 = not determinable up to highest concentrations tested
Experimental: as §3

[4] = system: human lung adenocarcinoma cells A549; assay: Antiproliferative activity, CCK-8 assay, A549; format: cell-based; conditions: CCK-8, 72 hours, mean ± SD
Experimental: as §3

[5] = system: five cancer cells, A549, HepG2, MCF-7, PC-3, HeLa; assay: Antiproliferative activity, CCK-8 assay, statements on all five cancer cell lines; format: cell-based, human
Experimental: as §1

T1 sequence (Q13547 whole entry): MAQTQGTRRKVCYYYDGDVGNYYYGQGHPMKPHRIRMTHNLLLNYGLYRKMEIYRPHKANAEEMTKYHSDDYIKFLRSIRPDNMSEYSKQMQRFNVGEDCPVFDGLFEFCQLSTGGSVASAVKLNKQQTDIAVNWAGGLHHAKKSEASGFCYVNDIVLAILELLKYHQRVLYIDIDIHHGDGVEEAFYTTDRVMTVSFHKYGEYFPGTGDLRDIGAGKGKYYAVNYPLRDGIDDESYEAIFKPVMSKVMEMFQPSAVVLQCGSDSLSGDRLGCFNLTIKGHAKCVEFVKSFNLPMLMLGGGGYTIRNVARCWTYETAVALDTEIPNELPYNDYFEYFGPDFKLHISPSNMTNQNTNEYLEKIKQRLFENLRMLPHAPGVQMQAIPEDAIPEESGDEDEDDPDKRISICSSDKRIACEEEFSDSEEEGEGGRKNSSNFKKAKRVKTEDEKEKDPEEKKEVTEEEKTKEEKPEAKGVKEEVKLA

Structure (SMILES)	IC50 (human recombinant HDAC1) [µM]	IC50 (human recombinant HDAC2) [µM]	IC50 [1] [µM]	IC50 [2] [µM]	tubulin polymerization inhibition compared with reference compound (tubulin)	IC50 (liver cancer cells HepG2) [µM]	IC50 [3] [µM]	IC50 (human recombinant HDAC6) [µM]	Selectivity index HDAC6/1 (human recombinant HDAC6)	Selectivity index HDAC6/2 (human recombinant HDAC6)	IC50 (healthy MCF-10A cells) [µM]	IC50 [4] [µM]	fold more potent than levofloxacin, antiproliferative activity ([5]; against all cancer cells)	melting point [°C]	IC50 ([5]; Homo sapiens, A549, HepG2, MCF-7, PC-3, HeLa, read-out: IC50 proliferation of the five cancer cells) [µM]
C[C@H]1COc2c(N3CCN(C)CC3)c(F)cc3c(=O)c(C(=O)OCc4cn(CCCCCCC(=O)NO)nn4)cn1c23 [Compound 8b, (S)-(1-(7-(hydroxyamino)-7-oxoheptyl)-1H-1,2,3-triazol-4-yl)methyl-9-fluoro-3-methyl-10-(4-methylpiperazin-1-yl)-7-oxo-3,7-dihydro-2H-[1,4]oxazino[2,3,4-ij]quinoline-6-carboxylate]	0.067 ± 0.019	0.082 ± 0.015	0.8 ± 0.15	8.5 ± 0.79	equipotent to reference compound CA-4	5.2 ± 0.56	2.7 ± 0.17	0.03 ± 0.019	2.2	2.7	> 100	3.5 ± 0.17			
C[C@H]1COc2c(N3CCN(C)CC3)c(F)cc3c(=O)c(C(=O)NCc4cn(CCCCCCC(=O)NO)nn4)cn1c23 [Compound 9b, (S)-9-Fluoro-N-((1-(7-(hydroxyamino)-7-oxoheptyl)-1H-1,2,3-triazol-4-yl)methyl)-3-methyl-10-(4methylpiperazin-1-yl)-7-oxo-3,7-dihydro-2H-[1,4]oxazino[2,3,4-ij]quinoline-6-carboxamide]	0.029 ± 0.018	0.041 ± 0.014	0.3 ± 0.14	4.9 ± 0.43	equipotent to reference compound CA-4	2.3 ± 0.31	1.1 ± 0.15	0.021 ± 0.007	1.4	2.0	> 100	2.1 ± 0.26	over 20 fold		
C[C@H]1COc2c(N3CCN(C)CC3)c(F)cc3c(=O)c(C(=O)NCc4cn(CCCCCCC(=O)O)nn4)cn1c23 [Compound 7b, (S)-7-(4-((9-fluoro-3-methyl-10-(4-methylpiperazin-1-yl)-7-oxo-3,7-dihydro-2H-[1,4]oxazino[2,3,4-ij]quinoline-6-carboxamido)methyl)-1H-1,2,3-triazol-1-yl)heptanoic acid]	2.1 ± 0.37	4.6 ± 0.62	7.8 ± 0.71	11.1 ± 1.16	equipotent to reference compound CA-4	9.9 ± 0.62	8.4 ± 0.62	1.1 ± 0.28	1.9	4.2	> 100	9.3 ± 0.82		187 to 190	
C[C@H]1COc2c(N3CCN(C)CC3)c(F)cc3c(=O)c(C(=O)O)cn1c23 [Levofloxacin, levofloxacin, reference compound]			64.2 ± 5.67	> 100		> 100	71.1 ± 4.98				> 100	76.3 ± 6.51			> 70

From PMC9080233, “Synthesis and biological evaluation of novel quinolone derivatives dual targeting histone deacetylase and tubulin polymerization as antiproliferative agents” (RSC Advances, 2018)
